Where “and” joins values, the source holds several entries; their conditions need not be identical. Identical values can stand only once.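 Step 1: Grow cells in 96-well plates. Step 2: Expose to compound for 48 hours at 5 concentrations. Step 3: Interpolate endpoints linearly; if unreached, use highest concentration. Abbreviation: GI50, concentration required for 50% inhibition of growth. The concentration for full growth arrest is given as TGI.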 Where a SMILES comes first, the peptide text is derived from it. [ ]: non-standard residue; d: D form. The star is where a group is joined. ξ: configuration not given here. 4Abz = Nc1ccc(C(=O)O)cc1; ξL = CC(C)CC(N)C(=O)O; NHOH = ON*
Tests used:
Test in all cases: inhibition of tumour cell growth, NCI panel, 48 h
HOP-18 NSCLC = tested on: HOP-18 NSCLC
KM20L2 colon = tested on: KM20L2 colon
DU-145 prostate = tested on: DU-145 prostate
NCI/ADR-RES ovarian = tested on: NCI/ADR-RES ovarian
DMS 273 small cell lung = tested on: DMS 273 small cell lung
SNB-78 CNS = tested on: SNB-78 CNS
M19-MEL melanoma = tested on: M19-MEL melanoma
MDA-N = tested on: MDA-N

SMILES | TGI (HOP-18 NSCLC) | TGI (KM20L2 colon) | GI50 (DU-145 prostate) | TGI (DU-145 prostate) | GI50 (NCI/ADR-RES ovarian) | TGI (NCI/ADR-RES ovarian) | TGI (DMS 273 small cell lung) | TGI (SNB-78 CNS) | TGI (M19-MEL melanoma) | TGI (MDA-N)
CCOc1cccc2cccnc12 | > 100 µM | > 100 µM | – | – | – | – | – | – | – | –
C=CC[n+]1c(/C=C2\Sc3ccccc3N2C)sc(-c2ccccc2)c1-c1ccccc1 | – | – | 0.439 µM | 12.2 µM | 7.89 µM | 61.7 µM | – | – | – | –
CC(C)CC(NC(=O)[C@@H]1CCCN1C(=O)CNC(=O)c1ccc(N)cc1)C(=O)N[C@H](C)C(=O)NO (some centres undefined) (H-[4Abz]GP[ξL][dA]-{NHOH}) | – | – | > 100 µM | > 100 µM | > 100 µM | > 100 µM | – | – | – | –
COc1ncn(C2C=C(CO)C(O)C2O)c(=O)n1 (centres undefined) | > 100 µM | > 100 µM | – | – | – | – | > 100 µM | > 100 µM | – | –
COC(=O)C1=C(O)C(C(=O)OC)[C@@]2(O)[C@@H](C(=O)OC)C(c3ccccc3C(F)(F)F)C[C@@H]1[C@@H]2C(=O)OC (some centres undefined) | – | – | 3.23 µM | 10.9 µM | 3.78 µM | 16.8 µM | – | – | – | –
CCOC(=O)C(=C=Cc1cccs1)C(=O)c1ccccc1 | 34 µM | – | – | – | – | – | 31.3 µM | 47.5 µM | 32.1 µM | –
COC(=O)C(=O)C(C(=O)C(=O)Nc1ccc(Cl)cc1Cl)c1nc2ccc(Cl)cc2[nH]c1=O (centres undefined) | – | – | – | > 100 µM | – | > 100 µM | – | – | – | –
CCCCCCCCOCC(O)COC (centres undefined) | > 100 µM | – | – | – | – | – | > 100 µM | – | > 100 µM | –
O=C(O)C(=O)/C=C\c1ccc(Cl)cc1 | > 100 µM | > 100 µM | – | – | – | – | > 100 µM | > 100 µM | > 100 µM | –
O=C(NCCc1ccccc1)C(c1csc2ccccc12)N(C(=O)CCl)c1ccc(-c2cnco2)cc1 (centres undefined) | – | – | 0.461 µM | 2.3 µM | 0.114 µM | 1.17 µM | – | – | – | –
O=C(CCCCCn1c2ccccc2c2c3c(c4c5ccccc5[nH]c4c21)C(=O)N(O)C3=O)N1CCOCC1 | – | – | 3.12 µM | 12.2 µM | 5.93 µM | > 100 µM | – | – | – | –
CC(C)n1c2c(c3ccccc3c1=O)C(=O)c1ccccc1-2 | – | – | – | > 100 µM | – | > 100 µM | – | – | – | > 100 µM
Cc1c(Br)cccc1NC(=O)c1sc2nc3c(cc2c1N)CN(Cc1ccccc1)CC3 | – | – | 0.168 µM | 2.99 µM | 0.136 µM | 10.5 µM | – | – | – | –
COc1ccc(OC)c(-c2cc(-c3ccc(Cl)cc3)nn2-c2ccc(S(N)(=O)=O)cc2)c1 | – | – | 12.1 µM | 25.9 µM | 6.54 µM | 22.2 µM | – | – | – | –
CCCCCCCC(=O)SCC/C=C/[C@@H]1CC(=O)NCc2cccc(n2)CN(Cc2ccc(Cl)cc2)CC(=O)N[C@@H](C(C)C)C(=O)O1 | – | – | 10.9 µM | > 100 µM | 11.4 µM | > 100 µM | – | – | – | –
COc1ccc2c(c1)Cc1cc(N=[N+]([O-])c3ccc4c(c3)Cc3cc(OC)ccc3-4)ccc1-2 | – | – | – | > 100 µM | – | > 100 µM | – | – | – | > 100 µM
COc1cc(OC)c(Oc2cccc(OC)c2OC)c(OC)c1 | 89.5 µM | > 100 µM | – | – | – | – | > 100 µM | > 100 µM | > 100 µM | –
Nc1nc(Cl)cc2c1ncn2C1OC(CO)C(O)C1O (centres undefined) | – | – | > 100 µM | > 100 µM | > 100 µM | > 100 µM | – | – | – | –
COC(=O)C1=C(O)C(C(=O)OC)[C@@]2(O)[C@@H](C(=O)OC)C(c3ccc(OC(=O)C(Cc4ccccc4)NC(C)=O)cc3)C[C@@H]1[C@@H]2C(=O)OC (some centres undefined) | – | – | – | – | 60.7 µM | > 100 µM | – | – | – | –
COC(=O)c1ccc2c(c1)[n+](=O)c(C(C)=O)c(C(F)(F)F)n2[O-] | – | – | 1.83 µM | 3.23 µM | 2.48 µM | 6.41 µM | – | – | – | –
CN1CCN(c2nc(NCCNc3ccnc4cc(Cl)ccc34)c3ccccc3n2)CC1 | – | – | – | – | 16 µM | 37 µM | – | – | – | –
COc1ccc(/C(C#N)=C/c2nc3c(N4CCOCC4)nc(Cl)nc3n2C)cc1OC | – | – | < 0.01 µM | 1.3 µM | < 0.01 µM | < 0.01 µM | – | – | – | –
COC(=O)C1=C(SC)SC2(C(=O)OC)C3C=C(C)C4C(N13)C42C(=O)OC (centres undefined) | – | > 100 µM | – | – | – | – | > 100 µM | – | > 100 µM | –
COC1=CC(=O)c2c(O)c3c(c(O)c2C1=O)CC(C)(O)OC3 (centres undefined) | – | – | – | 15 µM | – | > 25.9 µM | – | – | – | 3.57 µM
COc1cc(Oc2cnc3cc(N)cc(N)c3n2)cc(OC)c1OC | – | – | 62.3 µM | > 100 µM | 30.6 µM | > 100 µM | – | – | – | –
N#CC1=C(N)NC(=S)NC1c1ccc(-c2ccc(-c3nc4ccccc4s3)cc2)o1 (centres undefined) | – | – | 42.3 µM | > 50 µM | > 50 µM | > 50 µM | – | – | – | –
O=c1cc(N2CCOCC2)oc2c(-c3ccccc3)cccc12 | – | – | 6.73 µM | > 100 µM | 6.35 µM | 85.2 µM and 24.3 µM | – | – | – | 50.3 µM

SMILES | TGI (HOP-18 NSCLC) | TGI (KM20L2 colon) | GI50 (DU-145 prostate) | TGI (DU-145 prostate) | GI50 (NCI/ADR-RES ovarian) | TGI (NCI/ADR-RES ovarian) | TGI (DMS 273 small cell lung) | TGI (SNB-78 CNS) | TGI (M19-MEL melanoma) | TGI (MDA-N)
C=C1c2c(C)nn(-c3ccccc3)c2N(C)C23C[C@@H]1C1(C)c4c(C)nn(-c5ccccc5)c4N(C)C(C)(C[C@H]12)C3 (some centres undefined) | – | – | 8.7 µM | > 100 µM | 6.04 µM | > 100 µM | – | – | – | –
Cc1cc(C)c2nc(Nc3nc(C)c(C)c(=O)[nH]3)nc(C)c2c1 | – | – | 3.8 µM | 24.1 µM | 4.12 µM | 57.3 µM | – | – | – | –
CC(C)=CCNc1ncnc2c1ncn2C1OC(COP(=O)(O)O)C(O)C1O (centres undefined) | – | – | 1.35 µM | 4.15 µM | 5.85 µM | > 100 µM | – | – | – | –
N#CC1=C(N)Oc2c(sc3c(F)cccc23)C1c1ccc(Cl)cc1 (centres undefined) | – | – | 3.49 µM | 12.9 µM | 2.09 µM | 6.68 µM | – | – | – | –
O=C1C=Cc2cc3ccccc3c3cccc1c23 | – | – | 9.53 µM | > 100 µM | 3.33 µM | 19.2 µM | – | – | – | –
N=C(N)c1ccc(-c2ccc(-c3ccco3)o2)cc1 | – | – | 6.25 µM | 19 µM | 10.1 µM | 28.5 µM | – | – | – | –
COc1cc(C2CC(c3ccc(C)cc3)=NN2C(C)=O)ccc1Oc1ccnc2cc(Cl)ccc12 (centres undefined) | – | – | > 100 µM | > 100 µM | – | – | – | – | – | –
CC(C)CCC[C@@H](C)C1CCC2[C@@H]3CC=C4C[C@@H](OC(=O)CCC(=O)NCC[N+](C)(C)CCCS(=O)(=O)[O-])CC[C@]4(C)C3CC[C@@]21C (some centres undefined) | 97.2 µM | > 100 µM | – | – | – | – | 28.5 µM | 70.1 µM | 33.4 µM | –
Cc1ccc(NC(=O)C(=O)C2C(=O)C3=C(CC2(C)C)NC2C=CC=CC2S3)c(C)c1 (centres undefined) | – | – | – | > 100 µM | – | > 100 µM | – | – | – | > 100 µM
CCSc1sc(-c2ccc(C)cc2)nc1[P+](c1ccccc1)(c1ccccc1)c1ccccc1 | – | – | 0.346 µM | 1.35 µM | – | – | – | – | – | –
COc1cc2c(cc1OC)[C@@H]1[C@H](C2=O)c2ccc([N+](=O)[O-])cc2C(=O)N1CCCBr | – | – | 0.553 µM | > 20.4 µM | – | 9.93 µM | – | – | – | –
O=C1/C(=C/c2ccc(F)cc2)CN(Cc2cn(CCNc3ccnc4cc(Cl)ccc34)nn2)C/C1=C\c1ccc(F)cc1 | – | – | 1.32 µM | 2.63 µM | 2.76 µM | 11.3 µM | – | – | – | –
COc1ccc(C2CC(c3cccc(Nc4ccnc5cc(Cl)ccc45)c3)=NN2c2ccccc2)cc1 (centres undefined) | – | – | 14 µM | > 100 µM | 1.51 µM | 26.4 µM | – | – | – | –
NS(=O)(=O)OC[C@H]1O[C@@H](n2cnc3c(N[C@H]4CCc5ccccc54)ncnc32)[C@H](O)[C@@H]1O | – | – | 0.0838 µM | 1.36 µM | 5.05 µM | > 100 µM | – | – | – | –
CCCCCc1c(C)[nH]c(/C=C2\N=C(c3ccc[nH]3)C=C2Oc2ccc(OC)cc2)c1C | – | – | 0.165 µM and 0.0387 µM | 4.38 µM and 1.52 µM | 0.37 µM and 0.203 µM | 2.13 µM and 1.14 µM | – | – | – | –
O=C1CCc2cc([N+](=O)[O-])ccc2O1 | – | – | – | > 100 µM | – | > 100 µM | – | – | – | > 100 µM
COc1cc(OC)cc(-c2n[nH]nc2-c2ccc3c(c2)OCO3)c1 | – | – | 0.346 µM | > 100 µM | 0.0849 µM | 24 µM | – | – | – | –
Oc1ccc(Br)cc1CN1CCN(Cc2ccc(Cl)cc2)CC1 | – | – | 46.3 µM | > 100 µM | 17.2 µM | > 100 µM | – | – | – | –
COc1ccc(CNCCN2C(=O)c3ccc4c5c(ccc(c35)C2=O)C(=O)N(CCNCc2ccc(OC)cc2)C4=O)cc1 | – | – | 0.468 µM | 1.7 µM | 0.288 µM | 1.21 µM | – | – | – | –
CN1CCN(c2nc(C3=C(c4c[nH]c5ccccc45)C(=O)NC3=O)c3ccccc3n2)CC1 | – | – | 23.3 µM and 17.9 µM | 65 µM and 38 µM | 25.4 µM | 65 µM | – | – | – | –
COc1ccc(-n2cc(-c3ccc(Cl)cc3)[nH]c2=S)cc1Cl | – | – | 37.2 µM | > 100 µM | 42.2 µM | > 100 µM | – | – | – | –
OCCOCn1nc(-c2ccccc2)nc1-c1cnccn1 | – | – | – | > 100 µM | – | > 100 µM | – | – | – | > 100 µM
COc1cc(C2C3=C(COC3=O)N(CCO)c3cc4c(cc32)OCCO4)cc(OC)c1O (centres undefined) | – | – | 1.71 µM | > 21.7 µM | > 31.8 µM | > 50 µM | – | – | – | –
CC([C@H]1CCC2C3CCC4C(=O)C(NC=O)=CC[C@]4(C)C3CC[C@@]21C)N(C)C (some centres undefined) | – | – | 8.07 µM | 25.1 µM | 6.8 µM | 27.2 µM | – | – | – | –
CCC(C)CNC1=C(NC(C)=O)C(=O)c2ccccc2C1=O (centres undefined) | – | > 100 µM | – | – | – | – | > 100 µM | > 100 µM | 42.6 µM | –
O=C(O)CSc1ccn(Cc2ccccc2)c1 | – | – | – | > 100 µM | – | > 100 µM | – | – | – | > 100 µM
